Measured values published in ChEMBL document CHEMBL4229542 (Bioorg Med Chem Lett, 2018).

Columns and labels:
Cytochrome P450 3A4 = Cytochrome P450 3A4 (Homo sapiens, UniProt P08684); test: Inhibition of CYP3A4 (unknown origin); type: ADME
[1] = Half life in rat at 0.5 mg/kg, po; type: ADME, organism-based; conditions: in vivo
[2] = Permeability from apical to basolateral side in human Caco2 cells; type: ADME, cell-based; conditions: Caco-2, read-out: permeability
[3] = Oral bioavailability in rat at 0.5 mg/kg; type: ADME, organism-based; conditions: in vivo
EGFR = EGFR (Homo sapiens, UniProt P00533); test: Inhibition of EGFR (unknown origin) at 1 uM relative to control
[4] = Fraction unbound in rat plasma; type: ADME, cell-free
Cytochrome P450 2C9 = Cytochrome P450 2C9 (Homo sapiens, UniProt P11712); test: Inhibition of CYP2C9 (unknown origin); type: ADME
Cytochrome P450 2B6 = biological target: T1, Cytochrome P450 2B6 (Homo sapiens, UniProt P20813); test: Inhibition of CYP2B6 (unknown origin); type: ADME
T1 sequence (P20813 whole entry): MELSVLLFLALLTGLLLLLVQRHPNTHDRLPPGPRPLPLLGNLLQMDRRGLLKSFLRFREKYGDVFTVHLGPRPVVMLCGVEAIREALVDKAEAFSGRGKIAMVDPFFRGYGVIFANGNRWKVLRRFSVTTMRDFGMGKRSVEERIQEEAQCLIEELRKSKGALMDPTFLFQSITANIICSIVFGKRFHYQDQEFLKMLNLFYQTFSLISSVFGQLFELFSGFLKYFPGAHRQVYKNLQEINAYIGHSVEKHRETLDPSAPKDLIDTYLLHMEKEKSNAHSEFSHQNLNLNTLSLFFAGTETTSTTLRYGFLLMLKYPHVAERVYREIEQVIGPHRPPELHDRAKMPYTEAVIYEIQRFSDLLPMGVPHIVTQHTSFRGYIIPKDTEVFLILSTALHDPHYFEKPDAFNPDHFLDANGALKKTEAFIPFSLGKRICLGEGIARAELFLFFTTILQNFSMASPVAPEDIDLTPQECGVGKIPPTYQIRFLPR

[5] = Fraction unbound in human plasma; type: ADME, cell-free
Cytochrome P450 2C19 = Cytochrome P450 2C19 (Homo sapiens, UniProt P33261); test: Inhibition of CYP2C19 (unknown origin); type: ADME
[6] = Fraction unbound in mouse plasma; type: ADME, cell-free
[7] = biological target: Tyrosine-protein kinase BTK (Homo sapiens, UniProt Q06187); test: Inhibition of BTK (unknown origin)
[8] = Intrinsic clearance in rat liver microsomes assessed per mg protein; type: ADME, microsome; conditions: read-out: CLH
[9] = Intrinsic clearance in mouse liver microsomes assessed per mg protein; type: ADME, microsome; conditions: read-out: CLH
[10] = Intrinsic clearance in human liver microsomes assessed per mg protein; type: ADME, microsome; conditions: read-out: CLH
Rattus norvegicus = test: Volume of distribution at steady state in rat at 0.5 mg/kg, po; type: ADME, organism-based; conditions: in vivo
[11] = biological target: T2, Tyrosine-protein kinase TXK (Homo sapiens) (UniProt P42681); test: Inhibition of TXK (unknown origin) at 1 uM relative to control
T2 sequence (whole entry): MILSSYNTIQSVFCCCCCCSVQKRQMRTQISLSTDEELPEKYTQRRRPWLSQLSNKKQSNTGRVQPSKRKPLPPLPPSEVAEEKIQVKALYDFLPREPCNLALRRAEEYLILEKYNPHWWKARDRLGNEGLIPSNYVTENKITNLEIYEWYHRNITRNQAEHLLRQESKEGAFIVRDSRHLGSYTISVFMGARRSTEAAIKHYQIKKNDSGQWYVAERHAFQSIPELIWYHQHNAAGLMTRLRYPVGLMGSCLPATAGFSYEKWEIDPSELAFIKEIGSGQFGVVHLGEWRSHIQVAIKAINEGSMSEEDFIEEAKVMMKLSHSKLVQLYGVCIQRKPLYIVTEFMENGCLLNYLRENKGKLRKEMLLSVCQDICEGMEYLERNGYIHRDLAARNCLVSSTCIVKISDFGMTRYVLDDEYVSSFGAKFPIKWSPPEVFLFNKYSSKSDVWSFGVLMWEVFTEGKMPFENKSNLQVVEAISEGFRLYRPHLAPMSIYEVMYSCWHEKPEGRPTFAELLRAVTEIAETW

Cytochrome P450 2C8 = biological target: T3, Cytochrome P450 2C8 (Homo sapiens, UniProt P10632); test: Inhibition of CYP2C8 (unknown origin); type: ADME
T3 sequence (P10632 whole entry): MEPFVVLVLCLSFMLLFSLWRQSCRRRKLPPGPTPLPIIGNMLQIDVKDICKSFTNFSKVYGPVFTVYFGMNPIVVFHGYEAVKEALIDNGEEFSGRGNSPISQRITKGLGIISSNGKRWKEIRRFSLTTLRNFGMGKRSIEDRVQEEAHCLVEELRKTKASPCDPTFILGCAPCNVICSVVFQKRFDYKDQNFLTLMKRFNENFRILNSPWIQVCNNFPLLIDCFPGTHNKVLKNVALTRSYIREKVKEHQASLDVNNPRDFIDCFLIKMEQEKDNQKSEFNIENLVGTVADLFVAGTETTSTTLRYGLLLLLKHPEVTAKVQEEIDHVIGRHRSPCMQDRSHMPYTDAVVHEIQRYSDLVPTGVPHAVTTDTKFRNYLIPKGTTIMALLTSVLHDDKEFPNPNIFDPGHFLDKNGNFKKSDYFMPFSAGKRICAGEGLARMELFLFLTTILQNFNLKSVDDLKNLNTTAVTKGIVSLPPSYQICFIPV

[12] = biological target: T4, Cytoplasmic tyrosine-protein kinase BMX (Homo sapiens) (UniProt P51813); test: Inhibition of BMX (unknown origin) at 1 uM relative to control
T4 sequence (whole entry): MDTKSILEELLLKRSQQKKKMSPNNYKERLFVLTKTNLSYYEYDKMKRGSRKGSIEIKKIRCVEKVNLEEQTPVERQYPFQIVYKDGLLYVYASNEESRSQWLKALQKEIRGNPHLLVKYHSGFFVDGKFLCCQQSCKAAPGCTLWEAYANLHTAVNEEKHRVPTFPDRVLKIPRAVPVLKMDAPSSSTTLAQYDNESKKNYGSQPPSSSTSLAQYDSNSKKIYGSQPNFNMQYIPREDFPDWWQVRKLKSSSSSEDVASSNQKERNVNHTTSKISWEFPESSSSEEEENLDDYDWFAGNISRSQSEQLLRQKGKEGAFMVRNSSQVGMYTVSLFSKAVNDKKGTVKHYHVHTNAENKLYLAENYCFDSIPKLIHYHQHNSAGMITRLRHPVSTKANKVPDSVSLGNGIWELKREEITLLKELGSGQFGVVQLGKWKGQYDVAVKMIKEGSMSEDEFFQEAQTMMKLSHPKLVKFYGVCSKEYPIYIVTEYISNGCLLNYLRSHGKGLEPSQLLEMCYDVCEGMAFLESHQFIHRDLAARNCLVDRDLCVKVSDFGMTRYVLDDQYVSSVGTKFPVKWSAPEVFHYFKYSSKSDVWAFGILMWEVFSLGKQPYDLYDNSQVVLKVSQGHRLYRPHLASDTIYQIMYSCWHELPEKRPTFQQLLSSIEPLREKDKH

[13] = biological target: Voltage-gated inwardly rectifying potassium channel KCNH2 (Homo sapiens, UniProt Q12809); test: Binding affinity to human ERG
[14] = biological target: Tyrosine-protein kinase Blk (Homo sapiens) (UniProt P51451); test: Inhibition of Blk (unknown origin) at 1 uM relative to control
[15] = Clearance in rat at 0.5 mg/kg, po; conditions: in vivo

Sequence of Tyrosine-protein kinase BTK (Q06187 whole entry): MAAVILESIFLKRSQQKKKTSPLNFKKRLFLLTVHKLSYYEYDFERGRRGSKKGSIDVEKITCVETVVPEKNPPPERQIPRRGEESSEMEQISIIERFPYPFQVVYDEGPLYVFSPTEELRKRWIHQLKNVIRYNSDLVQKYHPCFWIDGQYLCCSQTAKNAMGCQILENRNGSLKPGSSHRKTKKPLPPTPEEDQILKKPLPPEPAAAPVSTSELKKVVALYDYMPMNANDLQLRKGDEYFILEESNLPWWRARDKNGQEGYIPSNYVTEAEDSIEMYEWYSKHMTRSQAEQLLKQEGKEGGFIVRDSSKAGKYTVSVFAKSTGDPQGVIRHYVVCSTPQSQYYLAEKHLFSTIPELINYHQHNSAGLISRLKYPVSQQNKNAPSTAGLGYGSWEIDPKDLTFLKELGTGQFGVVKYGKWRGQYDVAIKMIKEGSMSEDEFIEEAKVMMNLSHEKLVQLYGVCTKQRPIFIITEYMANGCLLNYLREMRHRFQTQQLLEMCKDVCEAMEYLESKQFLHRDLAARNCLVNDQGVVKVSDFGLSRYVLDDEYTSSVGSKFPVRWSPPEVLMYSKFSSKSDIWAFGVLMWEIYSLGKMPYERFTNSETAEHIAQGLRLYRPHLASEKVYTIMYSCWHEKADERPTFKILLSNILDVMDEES
Sequence of EGFR (P00533 whole entry): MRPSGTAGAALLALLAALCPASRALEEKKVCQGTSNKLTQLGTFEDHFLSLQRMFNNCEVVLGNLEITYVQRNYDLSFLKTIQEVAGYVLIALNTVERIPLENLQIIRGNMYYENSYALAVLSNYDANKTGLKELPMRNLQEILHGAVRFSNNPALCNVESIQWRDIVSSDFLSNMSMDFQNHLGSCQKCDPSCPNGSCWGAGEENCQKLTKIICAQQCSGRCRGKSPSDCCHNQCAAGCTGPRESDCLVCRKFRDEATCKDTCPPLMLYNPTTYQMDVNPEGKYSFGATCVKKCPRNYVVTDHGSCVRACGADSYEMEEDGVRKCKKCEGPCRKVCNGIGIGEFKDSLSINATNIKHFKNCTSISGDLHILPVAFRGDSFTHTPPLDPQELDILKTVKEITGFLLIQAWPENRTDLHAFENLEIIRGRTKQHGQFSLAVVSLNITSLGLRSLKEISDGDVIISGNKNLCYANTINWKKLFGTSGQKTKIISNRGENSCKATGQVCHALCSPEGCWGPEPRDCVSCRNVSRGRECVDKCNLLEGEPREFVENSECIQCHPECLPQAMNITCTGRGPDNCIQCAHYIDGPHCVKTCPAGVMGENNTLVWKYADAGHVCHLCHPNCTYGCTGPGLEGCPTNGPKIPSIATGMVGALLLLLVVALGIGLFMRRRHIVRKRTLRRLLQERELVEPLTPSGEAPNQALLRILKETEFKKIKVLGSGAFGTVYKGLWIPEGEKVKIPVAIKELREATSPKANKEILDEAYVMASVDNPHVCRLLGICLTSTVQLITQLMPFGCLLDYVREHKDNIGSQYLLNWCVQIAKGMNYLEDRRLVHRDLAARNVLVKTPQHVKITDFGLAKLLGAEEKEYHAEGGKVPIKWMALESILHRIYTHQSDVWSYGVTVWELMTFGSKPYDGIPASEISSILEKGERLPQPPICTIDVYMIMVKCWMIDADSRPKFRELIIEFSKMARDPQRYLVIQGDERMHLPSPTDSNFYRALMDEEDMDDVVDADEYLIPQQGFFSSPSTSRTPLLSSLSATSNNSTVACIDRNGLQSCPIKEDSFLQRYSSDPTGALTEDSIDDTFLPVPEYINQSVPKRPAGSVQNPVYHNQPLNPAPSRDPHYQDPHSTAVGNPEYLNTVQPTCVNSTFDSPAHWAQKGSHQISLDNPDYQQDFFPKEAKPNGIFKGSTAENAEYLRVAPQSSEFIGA
Sequence of Cytochrome P450 2C9 (P11712 whole entry): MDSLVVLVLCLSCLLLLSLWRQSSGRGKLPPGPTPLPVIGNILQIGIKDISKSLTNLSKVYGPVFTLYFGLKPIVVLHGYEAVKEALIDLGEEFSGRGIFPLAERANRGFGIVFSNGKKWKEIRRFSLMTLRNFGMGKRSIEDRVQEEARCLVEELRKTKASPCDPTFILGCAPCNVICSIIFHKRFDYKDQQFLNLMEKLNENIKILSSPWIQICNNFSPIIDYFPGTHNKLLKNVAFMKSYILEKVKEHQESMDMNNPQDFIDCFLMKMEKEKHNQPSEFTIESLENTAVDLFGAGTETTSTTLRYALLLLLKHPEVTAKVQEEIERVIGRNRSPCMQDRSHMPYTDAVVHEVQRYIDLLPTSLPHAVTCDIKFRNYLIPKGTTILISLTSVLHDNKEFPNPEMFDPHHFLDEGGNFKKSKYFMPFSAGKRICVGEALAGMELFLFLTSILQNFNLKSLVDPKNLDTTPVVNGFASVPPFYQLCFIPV
Sequence of Cytochrome P450 3A4 (P08684 whole entry): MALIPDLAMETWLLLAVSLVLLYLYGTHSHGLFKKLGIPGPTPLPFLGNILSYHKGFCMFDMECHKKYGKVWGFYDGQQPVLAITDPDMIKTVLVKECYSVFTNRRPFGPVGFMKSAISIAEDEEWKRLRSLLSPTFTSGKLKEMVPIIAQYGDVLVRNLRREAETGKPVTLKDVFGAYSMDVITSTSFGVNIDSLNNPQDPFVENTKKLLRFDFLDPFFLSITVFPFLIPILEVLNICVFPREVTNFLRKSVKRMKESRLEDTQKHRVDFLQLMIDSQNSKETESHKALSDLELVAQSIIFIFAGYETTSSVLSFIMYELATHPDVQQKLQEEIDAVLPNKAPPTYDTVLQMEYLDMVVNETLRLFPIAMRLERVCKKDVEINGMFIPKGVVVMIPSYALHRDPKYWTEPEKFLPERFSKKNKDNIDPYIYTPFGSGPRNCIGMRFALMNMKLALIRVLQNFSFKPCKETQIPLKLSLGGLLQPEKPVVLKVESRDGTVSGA
Sequence of Voltage-gated inwardly rectifying potassium channel KCNH2 (Q12809 whole entry): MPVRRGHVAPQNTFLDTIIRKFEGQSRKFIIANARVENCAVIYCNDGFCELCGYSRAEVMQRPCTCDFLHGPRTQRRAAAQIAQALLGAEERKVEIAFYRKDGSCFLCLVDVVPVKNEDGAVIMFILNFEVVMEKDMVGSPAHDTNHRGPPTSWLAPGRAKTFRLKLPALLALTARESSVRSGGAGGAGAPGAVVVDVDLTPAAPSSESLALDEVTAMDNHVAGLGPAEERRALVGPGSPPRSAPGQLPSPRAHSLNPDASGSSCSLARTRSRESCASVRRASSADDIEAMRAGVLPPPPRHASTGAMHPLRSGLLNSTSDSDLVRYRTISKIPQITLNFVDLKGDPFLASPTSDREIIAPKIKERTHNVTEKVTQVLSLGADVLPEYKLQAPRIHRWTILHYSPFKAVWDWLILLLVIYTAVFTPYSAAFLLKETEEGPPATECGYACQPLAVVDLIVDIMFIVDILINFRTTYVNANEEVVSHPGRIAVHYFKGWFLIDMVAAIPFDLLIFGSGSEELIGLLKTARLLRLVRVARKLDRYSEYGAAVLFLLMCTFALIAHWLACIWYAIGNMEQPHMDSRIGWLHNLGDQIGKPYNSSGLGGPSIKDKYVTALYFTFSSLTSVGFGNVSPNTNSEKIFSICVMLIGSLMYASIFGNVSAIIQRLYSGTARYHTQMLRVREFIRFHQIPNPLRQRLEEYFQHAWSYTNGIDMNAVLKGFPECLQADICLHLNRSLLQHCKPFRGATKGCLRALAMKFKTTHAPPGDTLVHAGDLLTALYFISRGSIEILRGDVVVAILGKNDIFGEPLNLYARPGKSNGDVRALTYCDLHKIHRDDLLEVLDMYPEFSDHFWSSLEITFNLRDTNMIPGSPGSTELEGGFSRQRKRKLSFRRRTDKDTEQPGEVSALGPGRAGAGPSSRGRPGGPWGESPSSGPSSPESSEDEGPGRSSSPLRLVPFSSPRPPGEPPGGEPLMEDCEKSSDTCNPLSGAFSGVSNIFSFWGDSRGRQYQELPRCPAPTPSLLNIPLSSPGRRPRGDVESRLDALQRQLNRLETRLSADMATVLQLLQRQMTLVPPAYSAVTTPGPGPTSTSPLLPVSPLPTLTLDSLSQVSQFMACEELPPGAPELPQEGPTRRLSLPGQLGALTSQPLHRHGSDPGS
Sequence of Tyrosine-protein kinase Blk (Homo sapiens) (P51451 2-505 limits assumed): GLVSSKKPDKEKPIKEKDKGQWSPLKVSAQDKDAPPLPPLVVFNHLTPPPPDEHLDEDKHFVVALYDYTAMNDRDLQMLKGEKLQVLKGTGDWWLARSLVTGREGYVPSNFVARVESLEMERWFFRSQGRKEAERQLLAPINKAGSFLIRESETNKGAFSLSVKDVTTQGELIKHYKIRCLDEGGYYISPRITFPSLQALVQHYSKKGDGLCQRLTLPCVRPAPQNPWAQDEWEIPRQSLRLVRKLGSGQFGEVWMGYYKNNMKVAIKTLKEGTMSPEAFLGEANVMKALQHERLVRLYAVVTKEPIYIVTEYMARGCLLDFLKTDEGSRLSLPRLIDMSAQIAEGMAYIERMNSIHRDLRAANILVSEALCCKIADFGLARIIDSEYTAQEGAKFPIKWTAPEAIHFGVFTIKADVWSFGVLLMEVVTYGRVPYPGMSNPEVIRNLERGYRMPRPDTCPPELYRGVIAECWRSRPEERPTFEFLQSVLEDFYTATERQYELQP
Sequence of Cytochrome P450 2C19 (P33261 whole entry): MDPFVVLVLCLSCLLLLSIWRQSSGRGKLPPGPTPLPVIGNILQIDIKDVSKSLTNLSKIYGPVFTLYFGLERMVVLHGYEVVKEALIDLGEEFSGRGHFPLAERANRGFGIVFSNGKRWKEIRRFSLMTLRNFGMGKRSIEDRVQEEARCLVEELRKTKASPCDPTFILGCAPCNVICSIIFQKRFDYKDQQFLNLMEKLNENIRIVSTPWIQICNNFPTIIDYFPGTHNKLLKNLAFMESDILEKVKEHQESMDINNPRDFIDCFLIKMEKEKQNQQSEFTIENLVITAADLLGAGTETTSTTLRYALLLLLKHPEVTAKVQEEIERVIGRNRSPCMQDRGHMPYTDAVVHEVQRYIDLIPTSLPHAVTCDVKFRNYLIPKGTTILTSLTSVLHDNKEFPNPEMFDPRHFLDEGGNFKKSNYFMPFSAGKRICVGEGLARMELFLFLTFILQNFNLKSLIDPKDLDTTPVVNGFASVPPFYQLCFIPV

SMILES | Papp A→B [2] | microsomal CLint [8] | microsomal CLint [9] | microsomal CLint [10] | further results
C=CC(=O)N1CCC[C@@H](n2nc(-c3ccc(Oc4ccccc4)cc3)c3c(N)ncnc32)C1 [IBRUTINIB] | 7.2 ×10⁻⁶ cm/s | – | – | – | IC50 (Cytochrome P450 3A4): 11 µM; half-life [1]: 30 min; bioavailability [3]: 12%; inhibition at 1 µM (EGFR): > 50%; fraction unbound [4]: 0.02; IC50 (Cytochrome P450 2C9): 8.5 µM; IC50 (Cytochrome P450 2B6): 11.1 µM; fraction unbound [5]: 0.025; IC50 (Cytochrome P450 2C19): 19 µM; fraction unbound [6]: 0.017
C=CC(=O)N[C@H]1CCN(c2ccc(C(N)=O)c(Nc3ccc(C(=O)N4CCOCC4)cc3)n2)C1 | – | – | – | – | IC50 [7]: 0.0016 µM
C=CC(=O)N1CC[C@H](Nc2ccc(C(N)=O)c(Oc3ccc(Oc4ccccc4)cc3)n2)C1 | 3 ×10⁻⁶ cm/s | 254 µL/min/mg | 228 µL/min/mg | 125 µL/min/mg | –
C=CC(=O)N[C@@H]1CCCN(c2ccc(C(N)=O)c(Oc3ccc(Oc4ccccc4)cc3)n2)C1 | – | 1000 µL/min/mg | 488 µL/min/mg | 309 µL/min/mg | –
C=CC(=O)NCC1CCCN(c2ccc(C(N)=O)c(Oc3ccc(Oc4ccccc4)cc3)n2)C1 (configuration not stated) | – | 302 µL/min/mg | 562 µL/min/mg | 140 µL/min/mg | –
C=CC(=O)N1C[C@@H]2C[C@H]1CN2c1ccc(C(N)=O)c(Oc2ccc(Oc3ccccc3)cc2)n1 | 6.7 to 6.8 ×10⁻⁶ cm/s | 203 µL/min/mg | 62 µL/min/mg | 74 µL/min/mg | Vdss (Rattus norvegicus): 0.86 L/kg; inhibition [11]: 54%; half-life [1]: 43.2 min; IC50 (Cytochrome P450 2C8): 100 nM; bioavailability [3]: 47%; inhibition [12]: 95%; Ki [13]: 2200 nM; fraction unbound [4]: 0.0031; inhibition [14]: 96%; fraction unbound [5]: 0.0046; CL/F [15]: 20.7 mL/min/kg; fraction unbound [6]: 0.002
C=CC(=O)N[C@H]1CCN(c2ccc(C(N)=O)c(Oc3ccc(Oc4ccccc4)cc3)n2)C1 | 14 ×10⁻⁶ cm/s | 21 µL/min/mg | 27 µL/min/mg | 10 µL/min/mg | –
C=CC(=O)N1C2CCC1CN(c1ccc(C(N)=O)c(Oc3ccc(Oc4ccccc4)cc3)n1)C2 | 0.6 ×10⁻⁶ cm/s | 145 µL/min/mg | 315 µL/min/mg | 106 µL/min/mg | –
C=CC(=O)N1CC[C@@H](Nc2ccc(C(N)=O)c(Oc3ccc(Oc4ccccc4)cc3)n2)C1 | 10 ×10⁻⁶ cm/s | 136 µL/min/mg | 191 µL/min/mg | 156 µL/min/mg | –
C=CC(=O)N1C[C@H]2C[C@@H]1CN2c1ccc(C(N)=O)c(Oc2ccc(Oc3ccccc3)cc2)n1 | 8 ×10⁻⁶ cm/s | 148 µL/min/mg | 472 µL/min/mg | 33 µL/min/mg | –
C=CC(=O)N1C2CC1CN(c1ccc(C(N)=O)c(Oc3ccc(Oc4ccccc4)cc3)n1)C2 | – | 167 µL/min/mg | 647 µL/min/mg | 49 µL/min/mg | –
C=CC(=O)N1CCN(c2ccc(C(N)=O)c(Oc3ccc(Oc4ccccc4)cc3)n2)CC1 | 13 ×10⁻⁶ cm/s | 97 µL/min/mg | 18 µL/min/mg | < 10 µL/min/mg | –
C=CC(=O)N[C@H]1CCN(c2ccc(C(N)=O)c(Oc3ccc(C(=O)N4CCOCC4)cc3)n2)C1 | – | – | – | – | IC50 [7]: 10 µM
